Source: patent US20050079228A1, “Clear, stable topical compositions of clarithromycin and processes for their preparation” (priority 2003, published 2005)

How the values were obtained:
[1] = Solubility of clarithromycin in non-aqueous media on complexation with zinc salt; assay type: physicochemical; details: molar ratio about 1:0.2 to about 1:2
Source text: Clarithromycin and the zinc salt are preferably combined in a molar ratio ranging from about 1:0.2 to about 1:2. This ratio permits the occurrence of effective complexation of the zinc and clarithromycin.

gram-positive bacteria = details: disclosed in U.S. Pat. No. 4,331,803; cited from earlier work

CC[C@H]1OC(=O)[C@H](C)[C@@H](O[C@H]2C[C@@](C)(OC)[C@@H](O)[C@H](C)O2)[C@H](C)[C@@H](O[C@@H]2O[C@H](C)C[C@H](N(C)C)[C@H]2O)[C@](C)(OC)C[C@@H](C)C(=O)[C@H](C)[C@@H](O)[C@]1(C)O [clarithromycin]
Solubility of clarithromycin in a non-aqueous media [1]: increases the solubility | Antibacterial activity against gram-positive bacteria (gram-positive bacteria): strong antibacterial activity
